Values after ≈ are worked out from the molar mass of the structure shown. Like-named read-outs stand apart in the source and are kept apart here.
Assays:
Neisseria gonorrhoeae = assay: MIC against 100 N. gonorrhoeae isolates, CLSI reference agar dilution; assay type: cell-based; settings: all 100 N. gonorrhoeae isolates
[1] = tested on: 7 S. aureus strains and 1 strain of Streptococcus pyogenes; assay: Minimum bactericidal concentration (MBC); assay type: cell-based, Staphylococcus aureus; Streptococcus pyogenes; settings: 7 S. aureus strains and 1 S. pyogenes strain
[2] = tested on: variants of S. aureus and S. pyogenes ARC838; assay: Susceptibility of Example 5 serial-passage variants to comparators; assay type: cell-based, Staphylococcus aureus; Streptococcus pyogenes; settings: variants after twenty passages with Example 5
[3] = Neisseria gonorrhoeae, read-out: MIC50
[4] = Neisseria gonorrhoeae, read-out: MIC90

SMILES	MIC50 (Neisseria gonorrhoeae) [µg/mL]	MIC90 (Neisseria gonorrhoeae) [µg/mL]	change in susceptibility of Example 5-selected variants [2] [fold]	further results
CC[C@H]1OC(=O)[C@H](C)[C@@H](O[C@H]2C[C@@](C)(OC)[C@@H](O)[C@H](C)O2)[C@H](C)[C@@H](O[C@@H]2O[C@H](C)C[C@H](N(C)C)[C@H]2O)[C@](C)(O)C[C@@H](C)CN(C)[C@H](C)[C@@H](O)[C@]1(C)O [azithromycin, reference compound]				MIC50 (Neisseria gonorrhoeae; [3]): 0.25 µg/mL (≈ 0.334 µM); MIC90 (Neisseria gonorrhoeae; [4]): 0.5 µg/mL (≈ 0.668 µM)
CC1(C)S[C@@H]2[C@H](NC(=O)Cc3ccccc3)C(=O)N2[C@H]1C(=O)O [penicillin, reference compound]				MIC50 (Neisseria gonorrhoeae; [3]): 2 µg/mL (≈ 5.98 µM); MIC90 (Neisseria gonorrhoeae; [4]): > 2 µg/mL
CN(C)[C@@H]1C(=O)C(C(N)=O)=C(O)[C@@]2(O)C(=O)C3=C(O)c4c(O)cccc4[C@@](C)(O)[C@H]3C[C@@H]12 [tetracycline, reference compound]	1 (≈ 2.25 µM)	2 (≈ 4.5 µM)		
CO/N=C(\C(=O)N[C@@H]1C(=O)N2C(C(=O)O)=C(CSc3nc(=O)c(O)nn3C)CS[C@H]12)c1csc(N)n1 [ceftriazone, reference compound]		0.06 (≈ 0.108 µM)		
CO/N=C(\C(=O)N[C@@H]1C(=O)N2C(C(=O)O)=C(CSc3nc(=O)c(O)nn3C)CS[C@H]12)c1csc(N)n1 [ceftriaxone, reference compound]	0.015 (≈ 0.027 µM)			
C[C@H]1COc2c(N3CCN(C)CC3)c(F)cc3c(=O)c(C(=O)O)cn1c23 [levofloxacin]			≤ 4	minimum bactericidal concentrations (MBCs) relative to the MIC [1]: ≤ 2 fold
CN[C@H](CC(C)C)C(=O)N[C@H]1C(=O)N[C@@H](CC(N)=O)C(=O)N[C@H]2C(=O)N[C@H]3C(=O)N[C@H](C(=O)N[C@H](C(=O)O)c4cc(O)cc(O)c4-c4cc3ccc4O)[C@H](O)c3ccc(c(Cl)c3)Oc3cc2cc(c3O[C@@H]2O[C@H](CO)[C@@H](O)[C@H](O)[C@H]2O[C@H]2C[C@](C)(N)[C@H](O)[C@H](C)O2)Oc2ccc(cc2Cl)[C@H]1O [vancomycin]			≤ 4	minimum bactericidal concentrations (MBCs) relative to the MIC [1]: ≤ 2 fold
C=CC1=C(C(=O)O)N2C(=O)[C@@H](NC(=O)/C(=N\OCC(=O)O)c3csc(N)n3)[C@H]2SC1 [cefixime, reference compound]	0.03 (≈ 0.0662 µM)	0.06 (≈ 0.132 µM)		
CC(=O)NC[C@H]1CN(c2ccc(N3CCOCC3)c(F)c2)C(=O)O1 [linezolid]			≤ 4	
